# Source: ChEMBL document CHEMBL3885881, “DrugMatrix”
# Species: Rattus norvegicus
# Test: DrugMatrix - Regimen: Daily Repeat
# Type: toxicity, organism-based, Sprague-Dawley
# Parameters: regimen Daily Repeat, gender Male, age 6-8 weeks
# Conditions: in vivo, po, route oral GAVAGE, vehicle .5 % CMC; for ABSOLUTE BASOPHIL / ABSOLUTE EOSINOPHIL / ABSOLUTE LYMPHOCYTE / ABSOLUTE MONOCYTE / ABSOLUTE SEGMENTED NEUTROPHIL / BASOPHIL / EOSINOPHIL / ERYTHROCYTE COUNT / HEMATOCRIT / HEMOGLOBIN / LEUKOCYTE COUNT / LYMPHOCYTE / MEAN CORPUSCULAR HEMOGLOBIN / MEAN CORPUSCULAR HEMOGLOBIN CONCENTRATION / MEAN CORPUSCULAR VOLUME / MONOCYTE / NEUTROPHIL / NUCLEATED RED BLOOD CELLS / PLATELET COUNT: tissue Blood; for ALANINE AMINOTRANSFERASE / ALBUMIN / ALKALINE PHOSPHATASE / ASPARTATE AMINOTRANSFERASE / BLOOD UREA NITROGEN / CARBON DIOXIDE / CHLORIDE / CHOLESTEROL / CREATINE PHOSPHOKINASE / CREATININE / GLUCOSE / LACTATE DEHYDROGENASE / LIPASE / PHOSPHORUS / POTASSIUM / SODIUM / TOTAL BILIRUBIN / TOTAL PROTEIN / URIC ACID: tissue Plasma
# [1] = 0 mg/kg, 72 h, dose level Control, time 3 day
# [2] = 0 mg/kg, 120 h, dose level Control, time 5 day
# [3] = 150 mg/kg, 72 h, dose level Low, time 3 day
smiles,measurement,setting,value
C[C@]1(Cn2ccnn2)[C@H](C(=O)O)N2C(=O)C[C@H]2S1(=O)=O [TAZOBACTAM],ABSOLUTE BASOPHIL,[1],0 CELLS/uL
same,ABSOLUTE EOSINOPHIL,[1],222.83 CELLS/uL
same,ABSOLUTE LYMPHOCYTE,[1],14453 CELLS/uL
same,ABSOLUTE MONOCYTE,[1],0 CELLS/uL
same,ABSOLUTE SEGMENTED NEUTROPHIL,[1],1490.83 CELLS/uL
same,BASOPHIL,[1],0%
same,EOSINOPHIL,[1],1.33%
same,ERYTHROCYTE COUNT,[1],5.76 x10E6/uL
same,HEMATOCRIT,[1],36.52%
same,HEMOGLOBIN,[1],13.45 G/DL
same,LEUKOCYTE COUNT,[1],16.17 x10E3/uL
same,LYMPHOCYTE,[1],89.33%
same,MEAN CORPUSCULAR HEMOGLOBIN,[1],23.37 pg
same,MEAN CORPUSCULAR HEMOGLOBIN CONCENTRATION,[1],36.85 G/DL
same,MEAN CORPUSCULAR VOLUME,[1],63.47 fL
same,MONOCYTE,[1],0%
same,NEUTROPHIL,[1],9.33%
same,NUCLEATED RED BLOOD CELLS,[1],0 /100WBC
same,PLATELET COUNT,[1],1239.5 x10E3/uL
same,ALANINE AMINOTRANSFERASE,[1],43.83 u/L
same,ALBUMIN,[1],4.27 G/DL
same,ALKALINE PHOSPHATASE,[1],398.83 u/L
same,ASPARTATE AMINOTRANSFERASE,[1],81.17 u/L
same,BLOOD UREA NITROGEN,[1],17.67 mg/dL
same,CARBON DIOXIDE,[1],27.5 mmol/L
same,CHLORIDE,[1],99.17 MEQ/L
same,CHOLESTEROL,[1],74 mg/dL
same,CREATINE PHOSPHOKINASE,[1],331.5 u/L
same,CREATININE,[1],0.2 mg/dL
same,GLUCOSE,[1],171.33 mg/dL
same,LACTATE DEHYDROGENASE,[1],241.67 u/L
same,LIPASE,[1],9.5 u/L
same,PHOSPHORUS,[1],12.25 mg/dL
same,POTASSIUM,[1],6.33 MEQ/L
same,SODIUM,[1],141.28 MEQ/L
same,TOTAL BILIRUBIN,[1],0.15 mg/dL
same,TOTAL PROTEIN,[1],5.98 G/DL
same,URIC ACID,[1],1.63 mg/dL
same,ABSOLUTE BASOPHIL,[2],0 CELLS/uL
same,ABSOLUTE EOSINOPHIL,[2],148.67 CELLS/uL
same,ABSOLUTE LYMPHOCYTE,[2],16020.5 CELLS/uL
same,ABSOLUTE MONOCYTE,[2],29.17 CELLS/uL
same,ABSOLUTE SEGMENTED NEUTROPHIL,[2],1468.33 CELLS/uL
same,BASOPHIL,[2],0%
same,EOSINOPHIL,[2],1%
same,ERYTHROCYTE COUNT,[2],5.78 x10E6/uL
same,HEMATOCRIT,[2],35.77%
same,HEMOGLOBIN,[2],13.4 G/DL
same,LEUKOCYTE COUNT,[2],17.67 x10E3/uL
same,LYMPHOCYTE,[2],90.5%
same,MEAN CORPUSCULAR HEMOGLOBIN,[2],23.22 pg
same,MEAN CORPUSCULAR HEMOGLOBIN CONCENTRATION,[2],37.47 G/DL
same,MEAN CORPUSCULAR VOLUME,[2],61.92 fL
same,MONOCYTE,[2],0.17%
same,NEUTROPHIL,[2],8.33%
same,NUCLEATED RED BLOOD CELLS,[2],0.17 /100WBC
same,PLATELET COUNT,[2],1255.5 x10E3/uL
same,ALANINE AMINOTRANSFERASE,[2],46.5 u/L
same,ALBUMIN,[2],4.38 G/DL
same,ALKALINE PHOSPHATASE,[2],336 u/L
same,ASPARTATE AMINOTRANSFERASE,[2],76.5 u/L
same,BLOOD UREA NITROGEN,[2],20 mg/dL
same,CARBON DIOXIDE,[2],27.5 mmol/L
same,CHLORIDE,[2],101 MEQ/L
same,CHOLESTEROL,[2],71.33 mg/dL
same,CREATINE PHOSPHOKINASE,[2],231.83 u/L
same,CREATININE,[2],0.37 mg/dL
same,GLUCOSE,[2],168.83 mg/dL
same,LACTATE DEHYDROGENASE,[2],174 u/L
same,LIPASE,[2],8.67 u/L
same,PHOSPHORUS,[2],11.48 mg/dL
same,POTASSIUM,[2],6.82 MEQ/L
same,SODIUM,[2],143.8 MEQ/L
same,TOTAL BILIRUBIN,[2],0.2 mg/dL
same,TOTAL PROTEIN,[2],5.98 G/DL
same,URIC ACID,[2],1.83 mg/dL
same,ABSOLUTE BASOPHIL,[3],0 CELLS/uL
same,ABSOLUTE EOSINOPHIL,[3],82.67 CELLS/uL
same,ABSOLUTE LYMPHOCYTE,[3],6416 CELLS/uL
same,ABSOLUTE MONOCYTE,[3],0 CELLS/uL
same,ABSOLUTE SEGMENTED NEUTROPHIL,[3],534.67 CELLS/uL
same,BASOPHIL,[3],0%
same,EOSINOPHIL,[3],1%
same,ERYTHROCYTE COUNT,[3],5.07 x10E6/uL
same,HEMATOCRIT,[3],32.53%
same,HEMOGLOBIN,[3],12.5 G/DL
same,LEUKOCYTE COUNT,[3],7.03 x10E3/uL
same,LYMPHOCYTE,[3],91.67%
same,MEAN CORPUSCULAR HEMOGLOBIN,[3],24.63 pg
same,MEAN CORPUSCULAR HEMOGLOBIN CONCENTRATION,[3],38.43 G/DL
same,MEAN CORPUSCULAR VOLUME,[3],64.17 fL
same,MONOCYTE,[3],0%
same,NEUTROPHIL,[3],7.33%
same,NUCLEATED RED BLOOD CELLS,[3],0 /100WBC
same,PLATELET COUNT,[3],1184.33 x10E3/uL
same,ALANINE AMINOTRANSFERASE,[3],52.67 u/L
same,ALBUMIN,[3],4.23 G/DL
same,ALKALINE PHOSPHATASE,[3],410.33 u/L
same,ASPARTATE AMINOTRANSFERASE,[3],79.67 u/L
same,BLOOD UREA NITROGEN,[3],16.67 mg/dL
same,CARBON DIOXIDE,[3],24.33 mmol/L
same,CHLORIDE,[3],104 MEQ/L
same,CHOLESTEROL,[3],78 mg/dL
same,CREATINE PHOSPHOKINASE,[3],280.33 u/L
same,CREATININE,[3],0.2 mg/dL
same,GLUCOSE,[3],152.33 mg/dL
same,LACTATE DEHYDROGENASE,[3],134.33 u/L
same,LIPASE,[3],8 u/L
same,PHOSPHORUS,[3],11.47 mg/dL
same,POTASSIUM,[3],6.02 MEQ/L
same,SODIUM,[3],144.87 MEQ/L
same,TOTAL BILIRUBIN,[3],0.2 mg/dL
same,TOTAL PROTEIN,[3],5.9 G/DL
same,URIC ACID,[3],1.03 mg/dL
